What all share (type): cell-based
For test [1], the target named is EGFR(D770_N771insSVD) expressing Ba/F3 stable cell line (Homo sapiens, UniProt P00533, DUP768-770, cells depend on it). The test can be described thus: Cellular proliferation (Alamar Blue) assay, EGFR(D770_N771insSVD) Ba/F3. The settings on record: 72 hr, read-out: D770 IC50. The protocol:
(§1) Cell line details: • 1. EGFR(D770_N771insSVD) expressing Ba/F3 stable cell line • 2. EGFR (A767_dupASV) expressing Ba/F3 stable cell line • 3. A431 cells • 4. EGFR (H773insNPH) expressing Ba/F3 stable cell line • 5. HER2 (A775_G776insYVMA) expressing Ba/F3 stable cell line
(§2) • 1. Seed cells at 5000 for A431 and 15,000 cells for Ba/F3 in 100 μL/well in complete media (for A431: DMEM with 10% FBS and for Ba/F3 cells: RPMI with 10% FBS) in 96-well tissue culture plate. Leave outer wells without cells for background measurements. Incubate at 37 degree Celsius in 5% CO2 humidified incubator for 16-18 hours. • 2. Add 0.025 ml of 5X concentration compound dilution or DMSO control. Final compound concentration range is 10-0.0005 μM prepared in 3-fold serial dilutions. Incubate for 72 hr at 37 degree Celsius in 5% CO2 humidified incubator. • 3. Add 0.0125 ml Alamar Blue™ reagent to each well with multi-channel pipette and tap gently on each side of the plate to mix. Incubate for 3 hours at 37 degree Celsius in 5% CO2 humidified incubator. • 4. […] Data analysis was performed using XLfit 5.5.0.5.

The target in test [2] is EGFR (A767_dupASV) expressing Ba/F3 stable cell line (Homo sapiens, UniProt P00533, DUP767-769, cells depend on it). Description: Cellular proliferation (Alamar Blue) assay, EGFR (A767_dupASV) Ba/F3. The settings on record: 72 hr, read-out: A767 IC50. The method, then:
as §1, §2

Test [3] concerns A431 cells. Description: Cellular proliferation (Alamar Blue) assay, A431 cells. The settings on record: Homo sapiens, A-431, 72 h, A431 cells; 72 hr; Alamar Blue; read-out: A431 IC50. The protocol:
as §2

Test [4] concerns the target HER2 (A775_G776insYVMA) expressing Ba/F3 stable cell line (Homo sapiens, UniProt P04626, DUP772-775, cells depend on it). The test can be described thus: Cellular proliferation (Alamar Blue) assay, HER2 (A775_G776insYVMA) Ba/F3. The settings on record: HER2 (A775_G776insYVMA) Ba/F3 cells; 72 hr; Alamar Blue; read-out: YVMA IC50. The protocol:
as §1, §2

The structures appear in SMILES notation.

Sequence of HER2 (A775_G776insYVMA) expressing Ba/F3 stable cell line (P04626 with tags, fused parts or gaps DUP772-775): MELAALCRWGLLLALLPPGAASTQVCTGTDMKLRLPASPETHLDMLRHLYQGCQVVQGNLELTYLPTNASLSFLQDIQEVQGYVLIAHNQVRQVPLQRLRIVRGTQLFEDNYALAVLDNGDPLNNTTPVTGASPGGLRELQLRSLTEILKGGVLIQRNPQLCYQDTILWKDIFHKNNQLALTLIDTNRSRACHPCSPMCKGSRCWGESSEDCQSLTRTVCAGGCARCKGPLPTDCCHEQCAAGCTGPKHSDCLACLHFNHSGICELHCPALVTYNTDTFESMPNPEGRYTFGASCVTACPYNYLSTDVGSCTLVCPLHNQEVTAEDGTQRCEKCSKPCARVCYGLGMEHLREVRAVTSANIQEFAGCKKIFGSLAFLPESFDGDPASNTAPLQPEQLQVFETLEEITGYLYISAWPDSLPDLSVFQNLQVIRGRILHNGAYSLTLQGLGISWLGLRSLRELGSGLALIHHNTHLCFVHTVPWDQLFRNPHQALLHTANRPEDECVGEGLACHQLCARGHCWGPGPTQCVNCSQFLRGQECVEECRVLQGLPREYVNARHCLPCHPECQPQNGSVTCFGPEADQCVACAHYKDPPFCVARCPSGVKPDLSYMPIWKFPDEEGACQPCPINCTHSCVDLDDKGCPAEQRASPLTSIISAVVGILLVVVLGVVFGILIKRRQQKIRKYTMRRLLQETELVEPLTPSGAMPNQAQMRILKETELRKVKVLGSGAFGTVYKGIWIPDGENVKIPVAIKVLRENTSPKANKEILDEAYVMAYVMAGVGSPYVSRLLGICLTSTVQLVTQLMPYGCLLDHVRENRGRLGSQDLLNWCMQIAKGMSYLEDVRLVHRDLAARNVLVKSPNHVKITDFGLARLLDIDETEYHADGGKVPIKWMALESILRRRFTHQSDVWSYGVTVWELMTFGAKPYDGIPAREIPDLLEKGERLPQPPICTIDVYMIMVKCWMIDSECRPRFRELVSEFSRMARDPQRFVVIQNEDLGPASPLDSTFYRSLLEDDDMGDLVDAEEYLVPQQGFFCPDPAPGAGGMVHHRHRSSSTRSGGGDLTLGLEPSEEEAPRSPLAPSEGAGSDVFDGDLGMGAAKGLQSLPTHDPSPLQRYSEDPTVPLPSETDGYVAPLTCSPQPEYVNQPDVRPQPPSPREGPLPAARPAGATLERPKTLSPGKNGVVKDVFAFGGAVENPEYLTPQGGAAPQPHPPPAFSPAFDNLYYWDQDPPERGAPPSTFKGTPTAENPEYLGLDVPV
Sequence of EGFR(D770_N771insSVD) expressing Ba/F3 stable cell line (P00533 with tags, fused parts or gaps DUP768-770): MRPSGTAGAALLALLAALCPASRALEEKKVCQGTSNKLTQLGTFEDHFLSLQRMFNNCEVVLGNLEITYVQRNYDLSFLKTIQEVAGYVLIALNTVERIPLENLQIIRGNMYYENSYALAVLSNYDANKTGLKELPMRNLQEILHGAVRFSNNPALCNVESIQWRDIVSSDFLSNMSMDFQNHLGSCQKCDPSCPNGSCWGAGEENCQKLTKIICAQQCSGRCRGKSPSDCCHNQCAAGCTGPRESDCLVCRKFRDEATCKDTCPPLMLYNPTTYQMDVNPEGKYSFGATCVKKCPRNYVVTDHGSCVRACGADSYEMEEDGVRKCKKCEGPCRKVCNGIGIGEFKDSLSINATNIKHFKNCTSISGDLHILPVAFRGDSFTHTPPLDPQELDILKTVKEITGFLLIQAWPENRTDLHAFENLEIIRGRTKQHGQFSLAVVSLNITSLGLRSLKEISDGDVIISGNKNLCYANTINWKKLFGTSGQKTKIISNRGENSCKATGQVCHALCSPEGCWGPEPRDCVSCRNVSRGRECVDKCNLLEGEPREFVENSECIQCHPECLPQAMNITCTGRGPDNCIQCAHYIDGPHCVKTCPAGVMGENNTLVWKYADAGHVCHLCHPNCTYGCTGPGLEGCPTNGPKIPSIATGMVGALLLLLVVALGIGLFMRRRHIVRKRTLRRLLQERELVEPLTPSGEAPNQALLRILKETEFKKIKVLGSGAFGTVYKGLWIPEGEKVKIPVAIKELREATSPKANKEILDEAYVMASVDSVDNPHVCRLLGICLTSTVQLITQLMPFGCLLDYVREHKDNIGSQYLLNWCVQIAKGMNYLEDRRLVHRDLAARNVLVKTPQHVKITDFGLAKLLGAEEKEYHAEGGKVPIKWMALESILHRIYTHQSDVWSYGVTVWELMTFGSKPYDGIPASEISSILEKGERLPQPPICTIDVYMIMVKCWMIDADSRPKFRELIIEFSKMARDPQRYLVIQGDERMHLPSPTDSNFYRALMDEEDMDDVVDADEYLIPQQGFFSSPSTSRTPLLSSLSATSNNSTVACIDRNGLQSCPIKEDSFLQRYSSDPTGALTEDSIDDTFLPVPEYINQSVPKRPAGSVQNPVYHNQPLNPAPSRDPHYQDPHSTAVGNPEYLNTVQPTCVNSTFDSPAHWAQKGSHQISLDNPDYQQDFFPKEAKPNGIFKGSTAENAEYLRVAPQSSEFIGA
Sequence of EGFR (A767_dupASV) expressing Ba/F3 stable cell line (P00533 with tags, fused parts or gaps DUP767-769): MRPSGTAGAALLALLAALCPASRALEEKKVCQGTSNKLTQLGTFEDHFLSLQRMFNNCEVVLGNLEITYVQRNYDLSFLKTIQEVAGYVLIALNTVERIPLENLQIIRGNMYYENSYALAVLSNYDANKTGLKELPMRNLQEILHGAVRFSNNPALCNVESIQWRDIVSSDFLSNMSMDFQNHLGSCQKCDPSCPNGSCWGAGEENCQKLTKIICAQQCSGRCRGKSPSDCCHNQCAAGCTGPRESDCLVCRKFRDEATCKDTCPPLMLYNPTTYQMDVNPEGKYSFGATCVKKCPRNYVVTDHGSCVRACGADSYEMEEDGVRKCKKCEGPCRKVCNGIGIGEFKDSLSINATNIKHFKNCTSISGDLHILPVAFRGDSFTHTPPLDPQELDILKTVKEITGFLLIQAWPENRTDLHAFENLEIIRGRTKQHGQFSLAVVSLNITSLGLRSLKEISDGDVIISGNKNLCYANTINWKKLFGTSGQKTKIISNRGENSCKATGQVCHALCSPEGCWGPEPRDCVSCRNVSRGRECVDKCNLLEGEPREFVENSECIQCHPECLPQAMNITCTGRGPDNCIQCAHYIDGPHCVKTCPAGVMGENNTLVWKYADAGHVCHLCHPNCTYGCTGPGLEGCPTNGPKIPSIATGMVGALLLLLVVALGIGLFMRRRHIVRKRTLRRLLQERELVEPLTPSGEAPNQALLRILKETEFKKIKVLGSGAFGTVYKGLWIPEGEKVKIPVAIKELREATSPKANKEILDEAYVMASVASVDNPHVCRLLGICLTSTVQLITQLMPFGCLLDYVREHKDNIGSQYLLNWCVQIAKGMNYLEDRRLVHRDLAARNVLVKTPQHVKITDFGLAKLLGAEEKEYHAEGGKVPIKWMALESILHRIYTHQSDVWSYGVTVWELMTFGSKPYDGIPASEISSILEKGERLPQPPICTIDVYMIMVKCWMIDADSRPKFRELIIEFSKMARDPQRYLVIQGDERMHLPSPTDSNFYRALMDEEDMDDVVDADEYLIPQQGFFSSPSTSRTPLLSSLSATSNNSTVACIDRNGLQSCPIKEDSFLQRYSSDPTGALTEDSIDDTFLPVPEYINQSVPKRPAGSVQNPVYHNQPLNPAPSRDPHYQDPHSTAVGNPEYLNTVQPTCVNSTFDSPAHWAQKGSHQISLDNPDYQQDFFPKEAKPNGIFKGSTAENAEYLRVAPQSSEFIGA

In the case of `C=CC(=O)Nc1ccc(F)c(Nc2nc(Nc3cnn(C)c3)ncc2-c2ccc(OC)c(OC)c2)c1` [Compound 2, N-(3-((5-(3,4-dimethoxyphenyl)-2-((1-methyl-1H-pyrazol-4-yl)amino)pyrimidin-4-yl)amino)-4-fluorophenyl)acrylamide], the GI50 worked out at 1.05 µM in test [1] and 0.896 µM in test [2]. Further, in test [3], the concentration for half-maximal inhibition (IC50) is above 10 µM.

As for `C=CC(=O)Nc1ccc(F)c(Nc2nc(Nc3cnn(C)c3)ncc2-c2ccc(F)c(OC)c2)c1` [Compound 4, N-(4-fluoro-3-((5-(4-fluoro-3-methoxyphenyl)-2-((1-methyl-1H-pyrazol-4-yl)amino)pyrimidin-4-yl)amino)phenyl)acrylamide], the GI50 in test [4] turned out to be 0.262 µM; in test [1] it was 0.295 µM; in test [2], 0.293 µM. In test [3], the IC50 is above 10 µM.

In the case of `C=CC(=O)Nc1ccc(F)c(Nc2nc(Nc3cnn(C)c3)ncc2-c2ccc(C(F)(F)F)cc2OC)c1` [Compound 10, N-(4-fluoro-3-((5-(2-methoxy-4-(trifluoromethyl)phenyl)-2-((1-methyl-1H-pyrazol-4-yl)amino)pyrimidin-4-yl)amino)phenyl)acrylamide], the figures for the GI50 in test [1] and in test [2] were 3.94 µM and 3.23 µM, respectively. Besides, the half-inhibitory concentration (IC50) in test [3] was above 10 µM.

For the molecule `C=CC(=O)Nc1ccc(F)c(Nc2nc(Nc3cnn(C)c3)ncc2-c2ccc(F)cc2Cl)c1` [Compound 12, N-(3-((5-(2-chloro-4-fluorophenyl)-2-((1-methyl-1H-pyrazol-4-yl)amino)pyrimidin-4-yl)amino)-4-fluorophenyl)acrylamide], the GI50 came out at 0.363 µM in test [1] and 0.919 µM in test [2].

Turning to `C=CC(=O)Nc1ccc(F)c(Nc2nc(Nc3cnn(C)c3)ncc2-c2cc(Cl)ccc2OC)c1` [Compound 23, N-(3-((5-(5-chloro-2-methoxyphenyl)-2-((1-methyl-1H-pyrazol-4-yl)amino)pyrimidin-4-yl)amino)-4-fluorophenyl)acrylamide], the GI50 in test [1] is 2.73 µM; in test [2], 2.76 µM. Further, the 50% inhibitory concentration (IC50) in test [3] came to 2.89 µM.

On to `C=CC(=O)Nc1ccc(F)c(Nc2nc(Nc3cnn(C)c3)ncc2-c2cc(F)cc(N(C)C)c2)c1` [Compound 42, N-(3-((5-(3-(dimethylamino)-5-fluorophenyl)-2-((1-methyl-1H-pyrazol-4-yl)amino)pyrimidin-4-yl)amino)-4-fluorophenyl)acrylamide], for which the GI50 in test [1] came to 0.942 µM; in test [2], 0.737 µM. The IC50 in test [3] is 4.51 µM.

For `C=CC(=O)Nc1ccc(F)c(Nc2nc(Nc3cn(C)nc3Cl)ncc2-c2ccc(F)c(Cl)c2)c1` [Compound 52, N-(3-((2-((3-chloro-1-methyl-1H-pyrazol-4-yl)amino)-5-(3-chloro-4-fluorophenyl)pyrimidin-4-yl)amino)-4-fluorophenyl)acrylamide], the GI50 in test [1] stood at 0.104 µM; in test [2], 0.307 µM. In addition, the IC50 in test [3] stood at 0.194 µM.

Take `C=CC(=O)Nc1ccc(F)c(Nc2nc(Nc3cnn(C)c3)ncc2-c2ccc3c(c2)CCN3C)c1` [Compound 59, N-(4-fluoro-3-((2-((1-methyl-1H-pyrazol-4-yl)amino)-5-(1-methylindolin-5-yl)pyrimidin-4-yl)amino)phenyl)acrylamide]: the values for the GI50 in test [1] and in test [2] were 0.3 µM and 0.957 µM, respectively. Also, the half-maximal inhibitory concentration (IC50) in test [3] was found to be 0.575 µM.

With `C=CC(=O)Nc1ccc(F)c(Nc2nc(Nc3cnn(C)c3)ncc2-c2ccc(N3CC(OC)C3)c(F)c2)c1` [Compound 79, N-(4-fluoro-3-((5-(3-fluoro-4-(3-methoxyazetidin-1-yl)phenyl)-2-((1-methyl-1H-pyrazol-4-yl)amino)pyrimidin-4-yl)amino)phenyl)acrylamide], the GI50 was found to be 0.312 µM in test [1] and 0.248 µM in test [2]. Further, in test [3], the IC50 was 0.105 µM.

On to `C=CC(=O)Nc1ccc(F)c(Nc2nc(Nc3cnn(C)c3)ncc2-c2ccc(N3CCN(C)CC3)c(F)c2)c1` [Compound 81, N-(4-fluoro-3-((5-(3-fluoro-4-(4-methylpiperazin-1-yl)phenyl)-2-((1-methyl-1H-pyrazol-4-yl)amino)pyrimidin-4-yl)amino)phenyl)acrylamide], for which the GI50 in test [1] worked out at 0.906 µM; in test [2] it was 0.343 µM. Besides, the IC50 in test [3] came to 3.01 µM.

For the molecule `C=CC(=O)Nc1ccc(F)c(Nc2nc(Nc3cnn(C)c3)ncc2-c2ccc(N3CC(N(C)C)C3)c(F)c2)c1` [Compound 83, N-(3-((5-(4-(3-(dimethylamino)azetidin-1-yl)-3-fluorophenyl)-2-((1-methyl-1H-pyrazol-4-yl)amino)pyrimidin-4-yl)amino)-4-fluorophenyl)acrylamide], the GI50 in test [1] came out at 1.01 µM; in test [2], 0.376 µM. Further, in test [3], the 50% inhibitory concentration (IC50) is 1.06 µM.

With `C=CC(=O)Nc1ccc(F)c(Nc2nc(Nc3cnn(C)c3)ncc2-c2ccc(N(C)CCN(C)C)c(F)c2)c1` [Compound 86, N-(3-((5-(4-((2-(dimethylamino)ethyl)(methyl)amino)-3-fluorophenyl)-2-((1-methyl-1H-pyrazol-4-yl)amino)pyrimidin-4-yl)amino)-4-fluorophenyl)acrylamide], the GI50 in test [1] was determined as 2.94 µM; in test [2] it was 2.24 µM. In test [3], the IC50 stood at 3.58 µM.

Regarding `[2H]C([2H])=CC(=O)Nc1ccc(F)c(Nc2nc(Nc3cnn(C)c3)ncc2-c2cnc(F)c(F)c2)c1` [Compound 103, N-(3-((5-(5,6-difluoropyridin-3-yl)-2-((1-methyl-1H-pyrazol-4-yl)amino)pyrimidin-4-yl)amino)-4-fluorophenyl)acrylamide-3,3-d2], the results for the GI50 in test [1] and in test [2] were 0.025 µM and 0.014 µM, respectively. For the same molecule, the IC50 in test [3] is 0.02 µM.

Turning to `[2H]C([2H])([2H])n1cc(Nc2ncc(-c3ccc(Br)c(F)c3)c(Nc3cc(NC(=O)C=C)ccc3F)n2)cn1` [Compound 169, N-(3-((5-(4-bromo-3-fluorophenyl)-2-((1-(methyl-d3)-1H-pyrazol-4-yl)amino)pyrimidin-4-yl)amino)-4-fluorophenyl)acrylamide], the GI50 in test [4] came out at 0.147 µM; in test [1] it was 0.036 µM. Moreover, the 50% inhibitory concentration (IC50) in test [3] amounted to 0.011 µM.

Take `C=CC(=O)Nc1ccc(F)c(Nc2nc(Nc3cnn(C)c3)ncc2-c2cc(F)cc(OCC(F)(F)F)c2)c1` [Compound 176, N-(4-fluoro-3-((5-(3-fluoro-5-(2,2,2-trifluoroethoxy)phenyl)-2-((1-methyl-1H-pyrazol-4-yl)amino)pyrimidin-4-yl)amino)phenyl)acrylamide]: the values for the GI50 in test [4], in test [1] and in test [2] were above 10 µM, 1.13 µM and 0.859 µM, respectively.

On to `C=C(F)C(=O)Nc1ccc(F)c(Nc2nc(Nc3cnn(C)c3)ncc2-c2ccc(Br)c(F)c2)c1` [Compound 177, N-(3-((5-(4-bromo-3-fluorophenyl)-2-((1-methyl-1H-pyrazol-4-yl)amino)pyrimidin-4-yl)amino)-4-fluorophenyl)-2-fluoroacrylamide], for which the GI50 in test [1] amounted to 0.939 µM; in test [2], 1.73 µM. In addition, in test [3], the 50% inhibitory concentration (IC50) is 0.326 µM.

`CN(C)C/C=C/C(=O)Nc1ccc(F)c(Nc2nc(Nc3cnn(C)c3)ncc2-c2ccc3c(c2)OCC3)c1` [Compound 178, (E)-N-(3-((5-(2,3-dihydrobenzofuran-6-yl)-2-((1-methyl-1H-pyrazol-4-yl)amino)pyrimidin-4-yl)amino)-4-fluorophenyl)-4-(dimethylamino)but-2-enamide]: the GI50 in test [1] was 0.927 µM; in test [2], 0.722 µM. Further, in test [3], the concentration for half-maximal inhibition (IC50) amounted to 0.35 µM.

For the origin of these results see patent publication US20230416232A1, “PYRIMIDINE COMPOUNDS, COMPOSITIONS, AND MEDICINAL APPLICATIONS THEREOF” (Blueprint Medicines Corporation, priority 2020, published 2023).
